This experiment deals with human prostate cancer PC-3 cells. Put plainly: Cytotoxic profile by MTT assay on human prostate cancer PC-3 cell line. As to conditions: incubation time=48 h. It is filed as cell-based. (In general: Formazan colour is commonly taken as a measure of viable cells.)

Among the data in patent US20170000740A9, “COMBINATION THERAPEUTIC NANOPARTICLES” (UNIVERSITY OF GEORGIA RESEARCH FOUNDATION INC., priority 2013, published 2017) are IC50 values, retold here.

In general, IC50 refers to the midpoint of a concentration-inhibition curve. A low value points to greater potency.

Molecules are shown by their SMILES.

For the molecule `N.N.[Cl][Pt][Cl]` [Cisplatin], the IC50 turned out to be 14 µM.

Consider `CC(=O)Oc1ccccc1C(=O)O` [Aspirin], for which, under “Homo sapiens”, the IC50 is > 100 µM.
